Experimental data from the supplement of paper PMC10307832.

How the values were obtained:
Test in all cases: relative viability (nuclei count vs DMSO), 5 days (fraction); higher = more cells survive
[1] = compound: C[C@H]([C@@H](C(=O)N)NC(=O)[C@@H]1CSSC[C@@H](C(=O)N[C@H](C(=O)N[C@@H](C(=O)N[C@H](C(=O)N1)CCCCN)CC2=CNC3=CC=CC=C32)CC4=CC=C(C=C4)O)NC(=O)[C@@H](CC5=CC=CC=C5)N)O [CAP-232] + Nc1nc2[nH]cc(CCc3ccc(C(=O)N[C@@H](CCC(=O)O)C(=O)O)cc3)c2c(=O)[nH]1 [Pemetrexed] (partner 0.2 µM)
Method in brief: (§1)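 Relative viability divides the nuclei count in treated wells by that in vehicle wells. Lung cancer cell lines were seeded in 1536-well plates, dosed by pin tool the next day, and fixed and stained after 5 days in one step with final 0.05% Triton X-100, 1% formaldehyde and 1 ug/ml Hoechst. Dosing was a single drug or a fixed anchor-drug dose plus five library-drug doses (not always all listed) in √10 steps, and values are medians of duplicate plates imaged at 4×.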

[2] = compound: C[C@H]([C@@H](C(=O)N)NC(=O)[C@@H]1CSSC[C@@H](C(=O)N[C@H](C(=O)N[C@@H](C(=O)N[C@H](C(=O)N1)CCCCN)CC2=CNC3=CC=CC=C32)CC4=CC=C(C=C4)O)NC(=O)[C@@H](CC5=CC=CC=C5)N)O [CAP-232] + CC(C)C[C@H](NC(=O)[C@H](Cc1ccccc1)NC(=O)c1cnccn1)B(O)O [Bortezomib] (partner 0.002 µM)
Method in brief: as §1

[3] = compound: C[C@H]([C@@H](C(=O)N)NC(=O)[C@@H]1CSSC[C@@H](C(=O)N[C@H](C(=O)N[C@@H](C(=O)N[C@H](C(=O)N1)CCCCN)CC2=CNC3=CC=CC=C32)CC4=CC=C(C=C4)O)NC(=O)[C@@H](CC5=CC=CC=C5)N)O [CAP-232] + N=C(N)NC(=N)NCCc1ccccc1 [Phenformin] (partner 250 µM)
Method in brief: as §1

[4] = compound: C[C@H]([C@@H](C(=O)N)NC(=O)[C@@H]1CSSC[C@@H](C(=O)N[C@H](C(=O)N[C@@H](C(=O)N[C@H](C(=O)N1)CCCCN)CC2=CNC3=CC=CC=C32)CC4=CC=C(C=C4)O)NC(=O)[C@@H](CC5=CC=CC=C5)N)O [CAP-232] + C[C@]1(O)C[C@@H](c2nc(-c3ccc4ccc(-c5ccccc5)nc4c3)c3c(N)nccn32)C1 [Linsitinib] (partner 1 µM)
Method in brief: as §1

[5] = compound: C[C@H]([C@@H](C(=O)N)NC(=O)[C@@H]1CSSC[C@@H](C(=O)N[C@H](C(=O)N[C@@H](C(=O)N[C@H](C(=O)N1)CCCCN)CC2=CNC3=CC=CC=C32)CC4=CC=C(C=C4)O)NC(=O)[C@@H](CC5=CC=CC=C5)N)O [CAP-232] + Cc1cc(Nc2cc(N3CCN(C)CC3)nc(Sc3ccc(NC(=O)C4CC4)cc3)n2)n[nH]1 [Tozasertib] (partner 0.1 µM)
Method in brief: as §1

| Cell Line | relative viability ([1]; first compound 0.4 µM) | relative viability ([1]; first compound 1.265 µM) | relative viability ([1]; first compound 4 µM) | relative viability ([1]; first compound 12.65 µM) | relative viability ([2]; first compound 0.4 µM) | relative viability ([2]; first compound 1.265 µM) | relative viability ([2]; first compound 4 µM) | relative viability ([2]; first compound 12.65 µM) | relative viability ([3]; first compound 0.4 µM) | relative viability ([3]; first compound 1.265 µM) | relative viability ([3]; first compound 4 µM) | relative viability ([3]; first compound 12.65 µM) | relative viability ([4]; first compound 0.4 µM) | relative viability ([4]; first compound 1.265 µM) | relative viability ([4]; first compound 4 µM) | relative viability ([4]; first compound 12.65 µM) | relative viability ([5]; first compound 0.4 µM) | relative viability ([5]; first compound 1.265 µM) | relative viability ([5]; first compound 4 µM) | relative viability ([5]; first compound 12.65 µM) |
| --- | --- | --- | --- | --- | --- | --- | --- | --- | --- | --- | --- | --- | --- | --- | --- | --- | --- | --- | --- | --- |
| NCI-H1792 | 1.12 | 0.78 | 0.849 | 0.465 | 1.13 | 1.01 | 1.27 | 0.845 | 0.129 | 0.193 | 0.247 | 0.188 | 0.493 | 0.56 | 0.654 | 0.285 | – | – | – | – |
| NCI-H1944 | 0.569 | 0.517 | 0.601 | 0.573 | – | – | – | – | 0.211 | 0.207 | 0.221 | 0.181 | 1.3 | 1.13 | 1.14 | 1.07 | 0.245 | 0.253 | 0.27 | 0.263 |
| NCI-H1703 | – | – | – | – | 0.251 | 0.333 | 0.226 | 0.164 | – | – | – | – | 0.489 | 0.642 | 0.933 | 0.873 | – | – | – | – |
| NCI-H1650 | 0.436 | 0.385 | 0.451 | 0.336 | 0.196 | 0.209 | 0.214 | 0.117 | 0.479 | 0.335 | 0.424 | 0.153 | – | – | – | – | 0.427 | 0.38 | 0.391 | 0.213 |
| NCI-H1395 | 0.971 | – | 0.917 | 0.503 | – | – | – | – | 0.46 | 0.4 | 0.448 | 0.453 | 1.3 | 0.986 | 1.03 | 0.831 | 0.677 | 0.793 | 0.765 | 0.79 |
| A549 | – | – | – | – | – | – | – | – | 0.164 | 0.183 | 0.146 | 0.113 | 0.621 | 0.59 | 0.583 | 0.531 | – | – | – | – |
| NCI-H1793 | 1.01 | 0.61 | 0.905 | 0.696 | – | – | – | – | 0.4 | 0.367 | 0.329 | 0.372 | 1.09 | 1.06 | 0.652 | 0.801 | 0.375 | 0.355 | 0.486 | 0.356 |
| NCI-H522 | 0.921 | 1.08 | 0.888 | 0.974 | – | – | – | – | 0.7 | 0.72 | 0.592 | 0.69 | – | – | – | – | 0.555 | 0.58 | 0.503 | 0.544 |
| NCI-H727 | – | – | – | – | – | 0.754 | 1.11 | 0.601 | 0.511 | 0.488 | 0.536 | 0.533 | – | 0.346 | 0.316 | 0.245 | 0.491 | 0.525 | 0.698 | 0.499 |
| SW 900 | 0.487 | 0.48 | 0.47 | 0.499 | – | – | – | – | 0.644 | 0.527 | 0.722 | 0.457 | – | – | – | – | 0.658 | 0.593 | 0.583 | 0.582 |
